For one assay, the system named is KMS34 cells. Description: Long term proliferation assay (14-day), KMS34. In kind it is cell-based. Conditions: KMS-34, 336 h; KMS34, MM; 14-day timepoint; absolute IC50. How it is done: (§1) Long term proliferation assay. A panel of multiple myeloma (MM) and acute myeloid leukemia (AML) cell lines were tested in 14-day proliferation assays. Exponentially growing cells were plated, in triplicate, in 96-well plates at the appropriate cell density in a final volume of 150 μL. Cells were incubated in the presence of increasing concentrations of compound A-30. Viable cell number was determined at 0, 4, 7, 11, and 14 days using Calcein staining and using an Accumen instrument to enumerate the number of cells. On days of cell counts, growth media and compound A-30 were replaced, and cells split back to initial density. Total cell number is expressed as split-adjusted viable cells per well.
(§2) Calculations were performed as follows:
(§3) First, the inhibition of proliferation was calculated for each well at each treatment concentration at each timepoint with the following formula:
(§4) [formula] Then, for each cell line, concentration response curves were plotted as average and standard deviation from triplicate determinations as percent inhibition vs log of concentration of compound A-30. Absolute IC50 values (concentration of compound at which 50% inhibition occurs) were determined from the curve at each timepoint using Graphpad Prism software. An IC50 value of ≤10 μM is designated as “A”; an IC50 value of >10 μM is designated as “B”.

For the next assay, the system named is OCIAML3 cells. Description: Long term proliferation assay (14-day), OCIAML3. Type of assay: cell-based. Conditions: Homo sapiens, OCI-AML-3, 336 h, 14-day timepoint, absolute IC50. The procedure:
as §1, §2, §3, §4

The test system of the next assay is LP1 cells. Description: Long term proliferation assay (14-day), LP1. Type of assay: cell-based. The settings on record: Homo sapiens, LP-1, 336 h; LP1, MM; 14-day timepoint; absolute IC50. The procedure:
as §1, §2, §3, §4

The target in another assay is KAT-5 (Homo sapiens (Human), UniProt Q92993). Put plainly: KAT-5 biochemical inhibition assay (SAMDI mass spectrometry). The settings on record: Table 5. In a few lines:
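Acetylation of 1 μM peptide by 9 nM enzyme with 0.5 μM acetyl-CoA (final) was run 90 min at 25° C in Tris pH 8.0 buffer with DTT, after compound preincubation at 2% DMSO. Formic acid stopped the reaction, and product was quantified by SAMDI mass spectrometry to derive IC50.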

For another assay, the system named is THP1 cells. Put plainly: Long term proliferation assay (14-day), THP1. Type of assay: cell-based. Conditions: Homo sapiens, THP-1, 336 h; THP1, AML; 14-day timepoint; absolute IC50. The procedure: as §1, §2, §3, §4
A further assay deals with KAT-6A (Homo sapiens (Human), UniProt Q92794). Put plainly: KAT-6A biochemical inhibition assay (SAMDI mass spectrometry). The settings on record: Table 5. In outline:
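IC50 values came from SAMDI time-of-flight mass spectrometry after formic acid quench (0.5% final). Acetylation ran 90 min at 25 °C with 1 μM acetyl coenzyme A and 1 μM peptide substrate, following compound pre-incubation with 12.5 nM KAT-6A in Tris buffer pH 8.0 containing DTT, 2% DMSO final.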

Another assay deals with OCIAML2 cells. Put plainly: Long term proliferation assay (14-day), OCIAML2. In kind it is cell-based. Conditions: Homo sapiens, OCI-AML2, 336 h; OCIAML2, AML; 14-day timepoint; absolute IC50. How it is done:
as §1, §2, §3, §4

The subject of a further assay is NOMO1 cells. Description: Long term proliferation assay (14-day), NOMO1. In kind it is cell-based. The settings on record: Homo sapiens, NOMO-1, 336 h; NOMO1, AML; 14-day timepoint; absolute IC50. How it is done: as §1, §2, §3, §4
In a further assay the test system is MOLM13 cells. Description: Long term proliferation assay (14-day), MOLM13. In kind it is cell-based. Conditions: Homo sapiens, MOLM-13, 336 h; MOLM13, AML; 14-day timepoint; absolute IC50. The procedure:
as §1, §2, §3, §4

The next assay concerns SEM cells. Description: Long term proliferation assay (14-day), SEM. Type of assay: cell-based. The settings on record: 336 h, B-ALL, 14-day timepoint, absolute IC50. The procedure: as §1, §2, §3, §4
A further assay relates to RPMI8226 cells. Put plainly: Long term proliferation assay (14-day), RPMI8226. Type of assay: cell-based. Conditions: Homo sapiens, RPMI-8226, 336 h; RPMI8226, MM; 14-day timepoint; absolute IC50. The procedure:
as §1, §2, §3, §4

For another assay, the target named is KAT-7 (Homo sapiens (Human), UniProt O95251). Description: KAT-7 biochemical inhibition assay (SAMDI mass spectrometry). Conditions: Table 5. In a few lines:
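Read-out was SAMDI time-of-flight MS of formic acid-quenched reactions (0.5% final). Compound dilutions (2% DMSO final) were pre-incubated with 6 nM KAT-7 in 50 mM Tris pH 8.0 with 1 mM DTT, then given 1 μM peptide substrate and 2 μM acetyl-CoA for 120 min at 25 °C. IC50 values were derived.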

The test system of another assay is KMS11 cells. Description: Long term proliferation assay (14-day), KMS11. Type of assay: cell-based. Conditions: Homo sapiens, KMS-11, 336 h; KMS11, MM; 14-day timepoint; absolute IC50. How it is done:
as §1, §2, §3, §4

Assay [1] relates to H3K23 acetylation in CAL-120 cells. Put plainly: Inhibition of acetylation of H3K23 in Human cell line CAL-120. Type of assay: cell-based. Conditions: CAL-120 cell line, 3 hours, serial dilutions starting at 10 μM; FIG. 1. The procedure:
Inhibition of acetylation of H3K23 in Human cell line CAL-120. Cell line CAL-120 was plated in eleven 10 cm tissue culture dishes at a cell density of 4×10^5 cells/cm^2 and treated with ten 2-fold serial dilutions of compound A-30 starting at 10 μM and one dish with DMSO (vehicle control) for 3 hours. Cells were tripsinized, washed twice with ice cold PBS and snap-frozen. Histones were extracted from cell pellets. Protein concentration was assessed and 60 ng of protein sample from histone extraction was prepared in triplicate in 100 μl coating buffer (0.05% w/v BSA in PBS) and added directly to high binding 96 well plates. Plates were left at 4° C. overnight to allow protein to adhere. Coating buffer with histones was discarded and plates blotted, and 100 μL per well of primary antibody solution of rabbit anti-H3K23ac antibody (Millipore 07-355) (1:600) and mouse anti-total H3 antibody (CST-14269) (1:500) in Odyssey buffer with 0.1% Tween 20 (v/v) was added to the wells of the plate and incubated for 1 hour. […]
Calculations were performed as follows: First, the ratio for each well was determined by:
[formula] Then, the average of the ratio values for each test well was calculated and used to determine the percent of H3K23Ac from vehicle for each test well in the plate: […]

The structures appear in SMILES notation. pIC50: −log10 of the molar value. Some results are limits rather than exact numbers.

Consider one molecule from patent US11685732B2, “MYST family histone acetyltransferase inhibitors” (Epizyme, Inc., priority 2017, dated 2023).

As usually defined, the pIC50 is the negative decadic logarithm of the IC50, by convention in mol/L. Higher therefore signals a low IC50.

Sequence of KAT-5 (Q92993 other isoform, or with tags, fused parts or gaps): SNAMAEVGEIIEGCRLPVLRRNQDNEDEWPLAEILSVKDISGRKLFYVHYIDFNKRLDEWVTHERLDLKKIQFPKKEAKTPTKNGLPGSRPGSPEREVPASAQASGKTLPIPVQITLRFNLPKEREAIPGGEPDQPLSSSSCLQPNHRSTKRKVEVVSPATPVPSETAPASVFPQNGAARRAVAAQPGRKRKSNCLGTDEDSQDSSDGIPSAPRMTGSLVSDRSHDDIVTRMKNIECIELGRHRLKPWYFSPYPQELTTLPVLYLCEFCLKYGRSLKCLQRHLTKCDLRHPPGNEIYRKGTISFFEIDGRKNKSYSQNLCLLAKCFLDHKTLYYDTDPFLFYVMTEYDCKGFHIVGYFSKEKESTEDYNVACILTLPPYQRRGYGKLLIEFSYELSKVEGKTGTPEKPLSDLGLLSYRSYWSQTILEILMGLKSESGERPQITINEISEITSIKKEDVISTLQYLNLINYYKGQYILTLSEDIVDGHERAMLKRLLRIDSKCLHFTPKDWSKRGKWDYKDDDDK
Sequence of KAT-6A (Q92794 other isoform, or with tags, fused parts or gaps): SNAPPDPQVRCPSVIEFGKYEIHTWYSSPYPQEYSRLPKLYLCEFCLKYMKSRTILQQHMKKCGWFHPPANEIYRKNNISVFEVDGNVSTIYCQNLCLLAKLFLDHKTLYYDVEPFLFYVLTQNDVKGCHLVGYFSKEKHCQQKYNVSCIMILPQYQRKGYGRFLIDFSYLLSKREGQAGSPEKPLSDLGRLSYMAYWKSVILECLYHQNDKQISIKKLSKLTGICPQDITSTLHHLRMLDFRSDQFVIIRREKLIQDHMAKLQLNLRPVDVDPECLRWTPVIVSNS
Sequence of KAT-7 (O95251 other isoform, or with tags, fused parts or gaps): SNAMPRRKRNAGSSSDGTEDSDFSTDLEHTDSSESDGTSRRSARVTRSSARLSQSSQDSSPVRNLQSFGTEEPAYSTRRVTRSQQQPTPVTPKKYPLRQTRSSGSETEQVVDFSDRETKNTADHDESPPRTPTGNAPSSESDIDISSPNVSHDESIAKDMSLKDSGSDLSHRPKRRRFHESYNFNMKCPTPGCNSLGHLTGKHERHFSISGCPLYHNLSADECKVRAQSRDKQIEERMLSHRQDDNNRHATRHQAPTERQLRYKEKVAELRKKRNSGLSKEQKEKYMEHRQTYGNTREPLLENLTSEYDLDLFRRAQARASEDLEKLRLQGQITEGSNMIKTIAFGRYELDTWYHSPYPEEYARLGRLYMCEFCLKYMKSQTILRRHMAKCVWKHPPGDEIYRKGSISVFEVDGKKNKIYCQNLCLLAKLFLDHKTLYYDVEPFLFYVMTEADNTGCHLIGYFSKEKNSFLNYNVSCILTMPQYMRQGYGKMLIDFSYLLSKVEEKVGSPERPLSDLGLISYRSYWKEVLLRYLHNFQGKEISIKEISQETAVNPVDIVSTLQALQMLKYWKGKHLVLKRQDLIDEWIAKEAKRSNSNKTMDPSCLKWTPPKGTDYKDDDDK

Consider `COCc1cc(Cl)c(F)c(C(=O)NNS(=O)(=O)c2cccc(O)c2)c1` [Compound A-30], for which the pIC50 in the assay on KMS34 cells is not below 5.00; in the assay with OCIAML3 cells, not below 5.00; in the assay on LP1 cells, not below 5.00; at KAT-5 it was not below 5.00; in the assay with THP1 cells, less than 5.00; at KAT-6A, not below 6.00. Also, the pIC50 in the assay with OCIAML2 cells is less than 5.00; with NOMO1 cells, not below 5.00; in the assay on MOLM13 cells it was less than 5.00; in the assay with SEM cells, less than 5.00; in the assay with RPMI8226 cells it was not below 5.00; on KAT-7, not below 5.00. In addition, in the assay with KMS11 cells, the pIC50 was not below 5.00. The “inhibition of acetylation of H3K23” value in assay [1] is listed as “inhibition of acetylation of H3 K23”.
